Source: PMC6009590 (The Journal of Infectious Diseases, 2018)
[ ]: non-standard residue; d: D form. The star is where a group is joined. X1 = CC(C)CCC[C@@H](C)[C@H]1CC[C@H]2[C@@H]3CC=C4C[C@@H](OC(=O)C*)CC[C@]4(C)[C@H]3CC[C@]12C; PEG4 = NCCOCCOCCOCCOCCC(=O)O

How the values were obtained:
proteinase K [1] = molecular target: T1, proteinase K (Parengyodontium album, UniProt P06873); settings: isolated enzyme proteinase k, pH 7.5
[2] = in vivo
proteinase K [3] = molecular target: T1, proteinase K; experiment: in vitro; settings: isolated enzyme proteinase k, pH 7.5

T1 sequence (P06873 106-384): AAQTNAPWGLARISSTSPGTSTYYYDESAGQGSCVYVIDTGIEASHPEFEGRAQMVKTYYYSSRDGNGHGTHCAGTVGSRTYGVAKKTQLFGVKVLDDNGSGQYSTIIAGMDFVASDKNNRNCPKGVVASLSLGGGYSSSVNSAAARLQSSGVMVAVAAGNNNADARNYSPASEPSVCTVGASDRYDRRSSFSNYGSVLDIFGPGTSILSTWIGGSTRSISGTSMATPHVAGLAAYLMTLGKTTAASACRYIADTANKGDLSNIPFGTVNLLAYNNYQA

Ac-VALDPIDISIVLNKIKSDLEESKEWIRRSNKILDSI-GSGSG-dPEG4-C-(PEG4-Toco)2-NH2 [VIKI-dPEG4-bisToco]
half-life of the intact peptide fraction (proteinase K [1]): 5 min

Ac-VALDPIDISIVLNKIKSDLEESKEWIRRSNKILDSI-GSGSG-dPEG4-C-(PEG4-Chol)2-NH2 [VIKI-dPEG4-bisChol]
half-life of the intact peptide fraction (proteinase K [1]): 3 min

Ac-VALDPIDISIVLNKIKSDLEESKEWIRRSNKILDSIGSGSG[PEG4]C(X1)-NH2 [VIKI-dPEG4-Chol]
biodistribution (lung, blood, CNS) [2]: reached high levels in the lung
half-life (proteinase K [3]): 10 min
